Reference: patent US20050142537A1, “System and method for rapid detection of metabolic deviations of a biological sample” (priority 2003, published 2005)

System: E. coli
Test: Impedance-based rapid detection of metabolic deviations (sensitivity testing) of a biological sample containing E. coli
Assay type: cell-based
Source text: There is shown in FIG. 1, system 10 for rapid detection of metabolic deviations of a biological sample of this invention. System 10 includes control chamber 12 which receives biological sample 14 via fluidic channel 15. Control chamber 12 also includes spaced electrodes 16 and 18 which are used to measure the impedance of biological sample 14 disposed in control chamber 12, as discussed in further detail below. Biological sample 14 may be blood, urine, sputum, feces, spinal fluid, food, water, a solution containing one or more microbial organisms, or any other biological sample known to those skilled in the art. The microbial organisms in biological sample 14 may include any biological cell, such as Escherichia coli, Staphylococcus aureus, Enterococcus faecalis, Streptococcus pneumoniae, Neisseria gonorrhoeae, Mycobacterium tuberculosis, Saccharomyces cerevisiae, or any other microbial organism known to those skilled in the art. […]
System 10 includes measuring and detection device 28 connected to electrodes 16 and 18 of control chamber 12 by lines 29 and 31 and electrodes 24 and 26 of target chamber 22 by lines 33 and 35. […] Measuring and detection device 28 then compares the measured second impedances to the measured first impedances to determine if biological reagent 20 has induced any metabolic deviations to biological sample 14 in target chamber 22. […]

SMILES: CCn1cc(C(=O)O)c(=O)c2cc(F)c(N3CCNCC3)cc21 [Norfloxacin]
- time at which sensitivity of the biological sample to the biological reagent is detected (FIG. 7 dashed line 404): about 40 minutes
- sensitivity of the biological sample to the biological reagent (measured impedance response vs control sample, FIG. 7 curve 402 vs curve 400): sensitive
